From patent US10350273B2, “Treatment of hormonal disorders of growth” (The United States of America, as represented by the …, priority 2014, dated 2019)
Entries after “also recorded” stand apart in the source; their conditions may differ. Numbered stars: 1 amine (or outer) side, 2 acyl side, 3 side chain; on linkers, the order of the positions; unused ones are H or OH. Square brackets hold non-standard residues; d marks the D form. Side chains are listed from the residue outwards. Ends that are not written are not given here. Peptide text beside a SMILES is read from it. * marks the point of attachment. Ethylenediamine = C(CN[*:2])N[*:1]; Hyp = O=C(O)[C@@H]1C[C@@H](O)CN1; Phg = N[C@H](C(=O)O)c1ccccc1; CO = O=C([*:1])[*:2]; Bn = c1ccc(C*)cc1

Legend:
somatotroph cells [1] = assay: GH secretion by primary pituitary tumor cell culture of an X-LAG patient; format: cell-based, human; conditions: for GH change compared to control wells: overnight incubation; for effect on GH secretion (in words): X-LAG pituitary tumor cell culture, dose range; for GH response on co-incubation with GHRH: co-incubation with GHRH 10^−10M
Method: (§1) A surgical sample of the human pituitary adenoma of the patient mentioned in example 11 in Dulbecco's modified Eagle's medium (DMEM) was dissociated mechanically and enzymatically as described by Jaquet et al. (Hormonal regulation of prolactin release by human prolactinoma cells cultured in serum-free conditions. Horm Res 22 153-163, 1985). A sample of the medium in the postoperative sample was retained before further preparation. A total of 50,000 tumor cells per well were plated in 24 well plates coated with extracellular matrix from bovine endothelial corneal cells required for cell adhesion. The cells were cultured in DMEM depleted of L-Valine (D-Valine-DMEM) to block fibroblast proliferation, supplemented with 10% fetal calf serum, penicillin (100 U/ml), streptomycin (100 μg/ml), and glutamine ([…]) at 37° C. in a water-saturated atmosphere containing 7% CO2. After 48 h, culture medium was changed to D-Valine DMEM containing 1% ITS (Insulin Transferin Selenium) and 1% fetal calf serum for another 48 h. Cells were incubated with drugs at a range of concentrations (10^−12-10^−7 mol/L) for 16 h (overnight). All the experiments were performed in triplicate. The medium was collected and stored frozen for GH and PRL measurements.
(§2) The somatostatin analogs (SSAs), octreotide and pasireotide were purchased from Novartis (Basel, Switzerland), Forskolin was obtained from Sigma-Aldrich (St. Quentin Fallavier, France), Cabergoline was obtained from Pfizer (Pharmacia & Upjohn Kalamazoo, USA), MK-0677 (ghrelin analog) was obtained from Europeptide, Argenteuil France, and MSP (ghrelin receptor-GHS-R inverse agonist) came from Polypeptide Laboratories (Strasbourg, France). The GHRH receptor antagonist, acetyl-(D-Arg^2)-GHRH(1-29) amide, and GnRH1-5 were obtained from Bachem, Europe.
(§3) GH secretion by the primary culture cells was quantified using the ALPHALISA® human growth hormone GH kit (Perkin Elmer USA). Prolactin levels were measured in culture medium using a commercial IRMA kit (PRL IRMA Kit-Beckman Coulter Immunotech, Marseille, France). Human GHRH concentrations in plasma were measured using an in-house double-antibody radio-immunoassay as described previously and using a standard solution of Stimu-GH 50 μg (Ferring) and the matrix was non-used culture medium (Girard et al.; Eur. J. Clin. Pharmacol., 32, 507-513, 1987).

somatotroph cells [2] = assay: Prolactin (PRL) secretion by primary pituitary tumor cell culture of an X-LAG patient; format: cell-based, human; conditions: for effect on prolactin secretion (in words): X-LAG pituitary tumor cell culture, dose range; for PRL change compared to control wells: overnight incubation, mean±SEM; for PRL response on co-incubation with GHRH: co-incubation with GHRH 10^−10M
Method: as §1, §2, §3

X-LAG patients = assay: Clinical treatment of X-LAG patients; format: in vivo, human; conditions: for IGF-1 levels under treatment: octreotide 150 mcg sc t.i.d. together with cabergoline 0.5 mg/week, one patient; for hormonal or growth control: X-LAG patients
Excerpt: Among the nine patients who underwent primary surgical resection, three had immediate GH/PRL control and excessive growth was halted. For those patients in whom growth and GH secretion were not controlled by their initial surgery, the subsequent management was complex. […] Therefore, it can be concluded that the GH receptor antagonist pegvisomant represents a useful option for IGF-1 and growth control.
The patient was a person with no family history of growth disorders. […] […] the patient began to grow excessively in terms of length and weight, exceeding the 97th percentile of their growth charts […]. […] A random level of GHRH was raised, although no potential ectopic sources were identified. […] As chronic treatment with somatostatin analogs and dopamine agonists for 12 months had no effect on the patient's excessive growth and their pituitary lesion began impinging on the optic chiasm, the patient was referred for neurosurgical treatment.

cAMP production = assay: cAMP assay (HTRF-cAMP Femto Kit) in cells from the tumor; format: cell-based, human; conditions: 10^−6M, 3 h, 37° C.
Method: Following the pharmacological co-incubation studies described in Example 13 the response of the tumor cells in terms of cAMP production was assessed. The cells from tumor were seeded into 24-well plates (4×10^4 cells/well). After 24 h in culture, the cAMP concentration was determined using the HTRF-cAMP Femto Kit (CisBio International, Bagnols-sur-Cèze, France), as described previously Cuny et al. (Mol Cell Endocrinol 355, 106-113, 2012). According to the manufacturer's protocol, the cells were detached using trypsin, seeded onto 96-well plates in suspension, and incubated at 37° C. for 3 h in the presence of forskolin. The HTRF assay reagents were then added directly into the 96-well plates.

sporadic X-LAG patient = assay: Dynamic pituitary hormone tests (TRH test, GnRH test) in the X-LAG patient; format: in vivo, human
Excerpt: Fluctuations in elevated GHRH levels also occurred, and these were partially but not completely in phase with alterations in GH. While the elevated prolactin levels varied by less than +7% from baseline throughout the study, changes in GH levels were more marked (−23.6% to +61.5%).

pituitary = conditions: cited from earlier work
somatotroph cells [3] = assay: GH secretion by primary pituitary tumor cell culture of an X-LAG patient; format: cell-based, human; conditions: 10^−13 M, overnight incubation, mean±SEM
[4] = TRH 125 μg IV or GnRH 25 μg IV, 0, 15, 30 and 90 minutes
[5] = listed as acetyl-(D-Arg^2)-GHRH(1-29)

For CC(C)(N)C(=O)N[C@H](COCc1ccccc1)C(=O)N1CCC2(CC1)CN(S(C)(=O)=O)c1ccccc12 [MK-0677], the “GH change compared to control wells” value (somatotroph cells [1]; concentration not given, mean±SEM) was “+15±0.5%” and the “effect on prolactin secretion (in words)” value (somatotroph cells [2]) was “no effect on prolactin secretion”.
In the case of C=CCN1C[C@H](C(=O)N(CCCN(C)C)C(=O)NCC)C[C@@H]2c3cccc4[nH]cc(c34)C[C@H]21 [cabergoline], the “GH change compared to control wells” value (somatotroph cells [1]; 10^−8M, mean±SEM) is reported as −32±0.8%, the “PRL change compared to control wells” value (somatotroph cells [2]; concentration not given) is reported as −15±0.04% and the “IGF-1 levels under treatment” value (X-LAG patients) is reported as “remained consistently elevated”.
In the case of C=C[C@@]1(C)CC(=O)[C@]2(O)[C@@]3(C)[C@@H](O)CCC(C)(C)[C@@H]3[C@H](O)[C@H](OC(C)=O)[C@@]2(C)O1 [forskolin], the “rise in cAMP production compared with controls” value (cAMP production) is reported as “+396±1.9%”.
In the case of CC(C)[C@@H]1NC(=O)[C@H](CCCCN)NC(=O)[C@@H](Cc2c[nH]c3ccccc23)NC(=O)[C@H](Cc2ccc(O)cc2)NC(=O)[C@@H](NC(=O)[C@H](N)Cc2ccc3ccccc3c2)CSSC[C@@H](C(=O)N[C@H](C(N)=O)[C@@H](C)O)NC1=O [lanreotide], the “hormonal or growth control” value (X-LAG patients) is reported as “did not lead to hormonal or growth control”.
With C[C@@H](O)[C@@H]1NC(=O)[C@H](CCCCN)NC(=O)[C@@H](Cc2c[nH]c3ccccc23)NC(=O)[C@H](Cc2ccccc2)NC(=O)[C@@H](NC(=O)[C@H](N)Cc2ccccc2)CSSC[C@@H](C(=O)N[C@H](CO)[C@@H](C)O)NC1=O [octreotide] the “effect on GH secretion (in words)” value (somatotroph cells [1]) was “no inhibitory effect on GH or prolactin; also recorded: no inhibition in GH secretion”, the “PRL change compared to control wells” value (somatotroph cells [2]; 10^−9M) was −26±0.03% and the “effect on prolactin secretion (in words)” value (somatotroph cells [2]) was “no inhibitory effect on GH or prolactin”. For the same compound, the “hormonal or growth control” value (X-LAG patients) was “did not lead to hormonal or growth control” and the “IGF-1 levels under treatment” value (X-LAG patients) was “remained consistently elevated”.
In the case of NCCCC[C@@H]1NC(=O)[C@@H](Cc2c[nH]c3ccccc23)NC(=O)[C@H](c2ccccc2)NC(=O)[C@@H]2C[C@@H](OC(=O)NCCN)CN2C(=O)[C@H](Cc2ccccc2)NC(=O)[C@H](Cc2ccc(OCc3ccccc3)cc2)NC1=O [pasireotide] (cyclo([Hyp]([CO-Ethylenediamine])[Phg][dW]KY(Bn)F)), the “GH change compared to control wells” value (somatotroph cells [1]; 10^−8M, mean±SEM) is reported as −18±0.6%, the “effect on GH secretion (in words)” value (somatotroph cells [1]) is reported as “small inhibitory effect on GH secretion” and the “effect on prolactin secretion (in words)” value (somatotroph cells [2]) is reported as “no effect on prolactin secretion”.
In the case of “GHRH: Human GHRH (hGHRH) peptide is comprised of 44 amino acid residues (YADAIFTNSYRKVLGQLSARKLLQDIMSRQQGESNQERGARARL)”, the “GH change compared to control wells” value (somatotroph cells [1]; 10^−10 M, mean±SEM) is reported as “+41±0.4%”, the “effect on GH secretion (in words)” value (somatotroph cells [1]) is reported as “further stimulated” and the “PRL change compared to control wells” value (somatotroph cells [2]; 10^−8M) is reported as “+11±0.4%”. The “effect on prolactin secretion (in words)” value (somatotroph cells [2]) was “further stimulated”.
For Ghrelin, the “effect on GH secretion (in words)” value (somatotroph cells [1]) was “minor stimulatory effect on GH secretion”.
In the case of “GnRH1-5: fragment of gonadotropin-releasing hormone, putative GPR101 agonist (QHWSY; ends and bridges not checked)”, the “GH change compared to control wells” value (somatotroph cells [1]; 10^−10 M, mean±SEM) is reported as “+15±1.5%”, the “effect on GH secretion (in words)” value (somatotroph cells [1]) is reported as “little effect on GH” and the “effect on prolactin secretion (in words)” value (somatotroph cells [2]) is reported as “did not stimulate prolactin release”.
With “GnRH: gonadotropin-releasing hormone, 25 μg IV GnRH (HRF-AYERST) (QHWSYGLRPG; not fully specified (residue 1, C-terminus); UniProt P01148 24-33, looked up)” the “GH level after GnRH administration” value (sporadic X-LAG patient; 25 μg IV GnRH, baseline GH 212 ng/mL) was 50 ng/mL, the “GH response (in words)” value (sporadic X-LAG patient; [4]) was “suppression of GH levels at 30 mins” and the “GHRH level response (in words)” value (sporadic X-LAG patient; [4]) was “not markedly altered; also recorded: GHRH levels remained unaltered; also recorded: remained elevated throughout”. The “prolactin response (in words)” value (sporadic X-LAG patient; [4]) was “prolactin rose mildly”.
For “Tyr-Ala-Asp-Ala-Ile-Phe-Thr-Asn-Ser-Tyr-Arg-Lys-Val-Leu-Gly-Gln-Leu-Ser-Ala-Arg-Lys-Leu-Leu-Gln-Asp-Ile-Met-Ser-Arg-NH2 [GHRH(1-29)]”, the “potency relative to native GHRH” value (pituitary) is listed as at least 50%.
For “acetyl-(D-Arg^2)-GHRH(1-29) amide (Ac-Y[dR]DAIFTNSYRKVLGQLSARKLLQDIMSR-NH2; SMILES CC[C@H](C)[C@H](NC(=O)[C@H](C)NC(=O)[C@H](CC(=O)O)NC(=O)[C@@H](CCCNC(=N)N)NC(=O)[C@H](Cc1ccc(O)cc1)NC(C)=O)C(=O)N[C@@H](Cc1ccccc1)C(=O)N[C@H](C(=O)N[C@@H](CC(N)=O)C(=O)N[C@@H](CO)C(=O)N[C@@H](Cc1ccc(O)cc1)C(=O)N[C@@H](CCCNC(=N)N)C(=O)N[C@@H](CCCCN)C(=O)N[C@H](C(=O)N[C@@H](CC(C)C)C(=O)NCC(=O)N[C@@H](CCC(N)=O)C(=O)N[C@@H](CC(C)C)C(=O)N[C@@H](CO)C(=O)N[C@@H](C)C(=O)N[C@@H](CCCNC(=N)N)C(=O)N[C@@H](CCCCN)C(=O)N[C@@H](CC(C)C)C(=O)N[C@@H](CC(C)C)C(=O)N[C@@H](CCC(N)=O)C(=O)N[C@@H](CC(=O)O)C(=O)N[C@H](C(=O)N[C@@H](CCSC)C(=O)N[C@@H](CO)C(=O)N[C@@H](CCCNC(=N)N)C(N)=O)[C@@H](C)CC)C(C)C)[C@@H](C)O) [acetyl-(D-Arg^2)-GHRH (1-29) amide]”, the “GH change compared to control wells” value (somatotroph cells [1]; 10^−11M, mean±SEM) was “+13±1.9%”, the “effect on GH secretion (in words)” value (somatotroph cells [1]) was “reduce basal and stimulated GH and prolactin secretion in a dose dependent manner” and the “GH response on co-incubation with GHRH” value (somatotroph cells [1]) was “complete abolition”. For the same compound, the “GH response on co-incubation with GHRH” value (somatotroph cells [1]; [5]) was “abolished the stimulatory effect of GHRH itself”, the “GH change compared to control wells” value (somatotroph cells [1]; highest GHRH-receptor antagonist dose studied) was “approximately −34±1.9%” and the “PRL change compared to control wells” value (somatotroph cells [2]; 10^−8M) was −73±0.1%. For the same compound, the “effect on prolactin secretion (in words)” value (somatotroph cells [2]) was “reduce basal and stimulated GH and prolactin secretion in a dose dependent manner”, the “PRL response on co-incubation with GHRH” value (somatotroph cells [2]) was “complete abolition” and the “PRL response on co-incubation with GHRH” value (somatotroph cells [2]; [5]) was “abolished the stimulatory effect of GHRH itself”. For the same compound, the “GH change compared to control wells” value (somatotroph cells [3]) was “+18±0.8%”.
In the case of pegvisomant, the “control of IGF1 (and growth)” value (X-LAG patients; postoperative use in X-LAG patients) is reported as “control of IGF1 in all five X-LAG patients; also recorded: control of IGF1 and excessive growth in three patients”.
